# Publication PMC8745505, “In Vitro Investigation of Binding Interactions between Albumin–Gliclazide Model and Typical Hypotensive Drugs” (International Journal of Molecular Sciences, 2021)
# Values joined by “and” are separate entries in the source; they are usually repeats but may differ in a detail not shown here. Equal values may be shown once. Where a name gives a salt, the structure may show the parent alone. Read-outs that look alike come from different tables or passages of the source.
# Columns and labels:
# [1] = target: T1, bovine serum albumin (BSA) (Bos taurus, UniProt P02769); details: for Stern–Volmer quenching constant KSV: GLICL as quencher 0–14 µM, DRUG 8 µM (DRUG:BSA 4:1), λex 280 nm
# T1 sequence (P02769 25-607): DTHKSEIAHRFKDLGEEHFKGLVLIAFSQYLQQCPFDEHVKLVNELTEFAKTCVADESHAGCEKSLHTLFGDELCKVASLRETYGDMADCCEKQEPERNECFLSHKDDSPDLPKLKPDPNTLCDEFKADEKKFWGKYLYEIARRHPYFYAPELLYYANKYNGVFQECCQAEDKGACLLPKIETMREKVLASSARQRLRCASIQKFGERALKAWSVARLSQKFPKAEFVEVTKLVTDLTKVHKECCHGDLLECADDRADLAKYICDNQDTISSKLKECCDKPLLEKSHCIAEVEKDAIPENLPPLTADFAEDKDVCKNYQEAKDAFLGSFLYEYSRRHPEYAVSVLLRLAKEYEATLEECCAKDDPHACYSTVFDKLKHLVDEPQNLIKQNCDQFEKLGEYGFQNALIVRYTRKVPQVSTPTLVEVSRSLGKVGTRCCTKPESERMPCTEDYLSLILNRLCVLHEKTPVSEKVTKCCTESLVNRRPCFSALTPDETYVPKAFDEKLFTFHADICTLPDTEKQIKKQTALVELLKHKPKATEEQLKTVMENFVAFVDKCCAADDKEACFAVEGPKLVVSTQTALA
# Protocol: (§1) Bovine serum albumin (≥96%) was used to prepare 1.2 mM stock solution in PBS (pH 7.4). […] The concentration of BSA was controlled by the spectrophotometric method at 280 nm (with a molar coefficient of 43,824 cm^−1 M^−1). […] Simultaneously, a control sample containing BSA solution without any ligands was prepared. Measurements were performed in triplicate. All reagents were received from Sigma-Aldrich (St. Luis, MO, USA).
# Fluorescence intensities of ternary models (BSA–DRUG–GLICL) were recorded using a Jasco FP-8200 spectrofluorometer with Peltier-thermo Cell Holder ETC-814 (Tokyo, Japan) at excitation wavelength of 280 nm, equipped with 1.0 cm quartz cells. The slit widths were set at 5 nm. The measurements were conducted at two different temperatures, 298 and 310 K. The fluorescence spectra of the drugs alone were also recorded. Each spectrum background was corrected by subtracting the spectrum of the phosphate buffer as a blank sample.
# According to the assumption that fluorophores in a protein molecule may differ in accessibility, modified Stern–Volmer Equation (2) was used for the construction of plots and to calculate quenching constants:(2) F0/F0−F=1/fa·KSV·Q+1/fa where F0 and F are the fluorescence intensities in the absence and presence of gliclazide (GLICL), respectively; fa is the fraction of the initial fluorescence accessible to the quencher; Ksv is the Stern–Volmer quenching constant; and Q is the concentration of the quencher (GLICL).
# The binding parameters (binding constant and number of binding sites) were obtained from double-log modified Stern–Volmer Equation (3):(3) logF0−F/F=logKa+n·logQ where F0 and F are the fluorescence intensities in the absence and presence of the quencher (gliclazide), respectively; Ka is the binding constant of the complex BSA–DRUG–GLICL, expressed as M^−1; n is the number of bound gliclazide molecules; and Q is the concentration of the quencher (GLICL).
# [2] = target: T1, bovine serum albumin (BSA)
# Protocol: as §1
# The thermodynamic analysis of the interaction between albumin and GLICL was performed on measurements at three temperatures (298, 303, 310 K) based on the van’t Hoff Equations (4)–(6):(4) ΔG=−R·T·lnKa (5) ΔG=ΔH−T·ΔS (6) lnKa=−ΔH/R·T+ΔS/R where ΔG is the free energy change, ΔH is the enthalpy change, ΔS is the entropy change, R is the universal gas constant, and T is the temperature.
# [3] = target: T1, bovine serum albumin (BSA); remark: listed apart in the source
# Protocol: as §1
# The circular dichroism spectra data were recorded using JASCO J-1500 spectropolarimeter (Tokyo, Japan) in the range of 205–250 nm, with a scanning speed of 200 nm/min and with 0.1 step resolution using a quartz cuvette with a length path of 0.1 cm. The measurements were conducted for binary (BSA–DRUG) and ternary (BSA–DRUG–GLICL) models to provide information about the influence of ligand binding on the protein structure. The baseline was corrected using a phosphate buffer, pH = 7.4.
# Mean residue ellipticity (MRE) was calculated according to the following Equation (7) and expressed in deg cm^2 dmol^−1:(7) MRE=Θobs/cp·n·l·10 where Θobs is the observed CD (in mdegree), Cp is the molar concentration of BSA, n is the number of amino acid residues (583 for BSA), and l is the path length of the cuvette (0.1 cm).
# The α-helical contents of free and modified BSA were calculated from MRE values at 208 nm with Equation (8):(8) α-helix (%)=MRE208−4000/33,000−4000 ·100 where MRE208 is the observed MRE value at 208 nm, 4000 is the MRE of the β-form and random coil conformation cross at 208 nm, and 33,000 is the MRE value of the pure α-helix of BSA at 208 nm.
# plasma protein = details: cited from earlier work; for Binding to plasma protein: general statement, no reference given
# albumin = details: cited from earlier work
# BSA = test system: BSA; design: method as in PMID 28888191; details: no additional ligand, cited from earlier work
# [4] = BSA–GLICL complex in presence of DRUG, 298 303 310 K
smiles,measurement,setting,value
"CCOC(=O)C1=C(COCCN)NC(C)=C(C(=O)OC)C1c1ccccc1Cl (stereo not drawn) [AML, amlodipine besylate]","Ka, association constant of BSA–GLICL complex in presence of DRUG",[1],1.15 ± 0.01 10^4 M^−1
same,"n, number of binding sites (bound gliclazide molecules)",[1],0.93 ± 0.01 and 0.97 ± 0.01
same,ΔS,[2],100.32 J/mol K
same,Decreased α-Helix (%),[3],0.7%
same,Binding to plasma protein,plasma protein,over 95%
"CC(C)NCC(O)COc1ccc(CC(N)=O)cc1 (stereo not drawn) [ATN, atenolol]","Association constant, site 1 of albumin",albumin,approx. 10^3 M^−1
"Cc1ccc(S(=O)(=O)NC(=O)NN2CC3CCCC3C2)cc1 (stereo not drawn) [GLICL, gliclazide]",Ka of BSA–GLICL (binary model),BSA; 298 K,3.80 10^4 M^−1
same,Ka of BSA–GLICL (binary model),BSA; 310 K,3.76 10^4 M^−1
same,Plasma protein binding,plasma protein,up to 94%
"CCOC(=O)[C@H](CCc1ccccc1)N[C@@H](C)C(=O)N1Cc2ccccc2C[C@H]1C(=O)O [QUI, quinapril hydrochloride]","n, number of binding sites (bound gliclazide molecules)","[1]; BSA–DRUG–GLICL, 298 K",1.04 ± 0.01
same,"n, number of binding sites (bound gliclazide molecules)","[1]; BSA–DRUG–GLICL, 310 K",1.03 ± 0.03
same,"Ka, association constant of BSA–GLICL complex in presence of DRUG","[1]; BSA–DRUG–GLICL, DRUG:BSA 4:1, 298 K",1.65 ± 0.02 10^4 M^−1
same,"Ka, association constant of BSA–GLICL complex in presence of DRUG","[1]; BSA–DRUG–GLICL, DRUG:BSA 4:1, 310 K",2.09 ± 0.07 10^4 M^−1
same,Stern–Volmer quenching constant KSV,"[1]; BSA–DRUG–GLICL, 298 K",2.23 ± 0.01 10^4 M^−1
same,Stern–Volmer quenching constant KSV,"[1]; BSA–DRUG–GLICL, 310 K",0.96 ± 0.16 10^4 M^−1
same,Mechanism of quenching of BSA fluorescence by GLICL in presence of DRUG,"[1]; from temperature dependence of KSV, 298 vs 310 K",static mechanism
same,Change of Ka of BSA–GLICL complex in comparison to the binary model,[1]; ternary vs binary model (binary Ka from ref 24),more than a twofold decrease
same,ΔH,[2]; [4],15.08 kJ/mol
same,ΔS,[2]; [4],131.36 J/mol K
same,ΔG,"[2]; BSA–GLICL complex in presence of DRUG, 298 K",-24.07 kJ/mol
same,ΔG,"[2]; BSA–GLICL complex in presence of DRUG, 303 K",-24.72 kJ/mol
same,ΔG,"[2]; BSA–GLICL complex in presence of DRUG, 310 K",-25.64 kJ/mol
same,α-Helix Content (%),"[3]; binary BSA–DRUG, molar ratio 1:4, 310 K (BSA alone 68.7)",67.6%
same,Decreased α-Helix (%),"[3]; binary BSA–DRUG, molar ratio 1:4, 310 K, vs BSA alone",1.1%
same,α-Helix Content (%),"[3]; ternary BSA–DRUG–GLICL, BSA:Ligand 1:4, BSA:GLICL 1:7, 310 K (BSA alone 68.7)",63.1%
same,Decreased α-Helix (%),"[3]; ternary BSA–DRUG–GLICL, BSA:Ligand 1:4, BSA:GLICL 1:7, 310 K, vs BSA alone",5.6%
same,Binding to plasma protein,plasma protein,over 95%
"CCCCC(=O)N(Cc1ccc(-c2ccccc2-c2nnn[nH]2)cc1)[C@H](C(=O)O)C(C)C [VAL, valsartan]","Ka, association constant of BSA–GLICL complex in presence of DRUG",[1],0.12 ± 0.04 10^4 M^−1
same,Mechanism of quenching of BSA fluorescence by GLICL in presence of DRUG,[1],static mechanism
same,"n, number of binding sites (bound gliclazide molecules)",[1],0.87 ± 0.01 and 0.74 ± 0.02
same,ΔG,[2],-21.80 kJ/mol
same,ΔH,[2],100.10 kJ/mol
same,ΔS,[2],393.25 J/mol K
same,Decreased α-Helix (%),[3],1.0% and 3.5%
same,α-Helix Content (%),[3],67.7% and 65.2%
same,Protein binding,plasma protein,95%
